The text below walks through data of US4223016A, “Peptides” (Beecham Group Limited, priority 1977, dated 1980).

Where a SMILES comes first, the peptide text is derived from it. Where no end group is shown, it is not given here.

The subject of experiment [1] is Rat Peritoneal Mast Cells. As to the kind of experiment: Histamine release from rat peritoneal mast cells (Rat Mast Cell in vitro test). To be noted: for EC50: average of a number of experiments, read-out: ACTIVITY: average concentration of peptide to give approximately 50% release of available histamine from rat mast cells. It is filed as cell-based. The text has this: (§1) (a) (1) Histamine, (2) Cr^51 and (3) Lactic Dehydrogenase Release from Rat Peritoneal Mast Cells (Rat Mast Cell in vitro test)
(§2) Mast cells, derived from the peritoneal washings of three male, outbred Wistar rates (250-300 g), were purified by the procedure according to Cooper and Stanworth (Preparative biochem. 4(2), 105, 1975).
(§3) The purified cells were washed twice in Dulbecco's incomplete (i.e. free from mineral salts) buffer and then resuspended in Dulbecco's medium to the required volume. In a typical experiment, sufficient cells were available for 30 duplicate challenges, i.e. 60 samples and in this case the resuspension volume employed was 6.1 mls. 0.1 ml of cell suspension were taken for estimating the cell count.
One third of the cell suspension was employed. To 0.9 ml duplicate aliquots of challenge solution, prepared in complete Dulbecco's medium and prewarmed to 37° C., was added 0.1 ml of cell suspension. The solutions were then shaken gently, and allowed to incubate for 5 minutes at 37° C. The reaction tubes were then quickly removed from the incubator and placed in an ice bath. Supernatants were then seqparated from the cell population following centrifugation for 3 minutes at 1000 r.p.m. The cell residues were then treated with 2 mls of 0.4 N perchloric acid and allowed to stand for approximately 30 minutes at ambient temperature. The precipitated protein was removed by centrifugation and the supernatant solutions set aside for histamine analysis. The original supernatant solutions were treated with 1.0 ml of 0.8 N perchlorate and then treated in a similar manner to the cell residues. Histamine was measured by the method according to Evans, Lewis and Thompson (Life Sciences, 12, 327, 1973) using a Technicon Auto-analyser. Histamine release was calculated as a percentage of total histamine available in each challenge solution.

In experiment [2] the test system is Rat Peritoneal Mast Cells. As to the kind of experiment: Cr^51 and lactic dehydrogenase (LDH) release from rat peritoneal mast cells. It is filed as cell-based. The settings on record: Rat Mast Cells in vitro.
Description: as §1, §2, §3
One third of the cell suspension was employed. […] Activity present in the whole recovered supernatants was measured using a Tracer Laboratory Spectromatic γ counter. The percentage of Cr^51 released was assessed in relation to the values obtained for the positive and negative control solutions.
One third of the cell suspension was employed. […] The solutions were incubated at ambient temperature for 20 minutes and the fluorescence emission was then measured. […] The LDH activity was assessed in terms of the increase of fluorescence over control due to NADH formation following lactate addition. […]

In a further experiment the test system is Rat Skin. Briefly: Skin test, intradermal titration in rat skin in vivo. The settings on record: read 20 minutes after intradermal challenge. Here is the method:
(§4) Skin tests were carried out in the shaved backs of animals (rats and baboons) immediately after intravenous injection of pontamine sky blue (5%) in aqueous sodium chloride solution (0.9%) at a dose of 0.1 ml per kilogram of body weight in the case of rats and 5 ml per animal in the case of baboons.
(§5) Peptide in aqueous sodium chloride solution (0.9%), or saline control, were injected intradernally in 0.05 ml or 0.10 ml volumes. Skin reactions were read 20 minutes after intradernal challenge.

Another experiment concerns Baboon Skin. As to the kind of experiment: Skin test, intradermal titration in baboon skin in vivo. The settings on record: for ACTIVITY: average concentration of peptide to give an end point in intradernal titrations in baboon skin: read 20 minutes after intradermal challenge. As to the method: as §4, §5
Experiment [3] deals with peritoneal mast cells of ovalbumen-immunised Brown Norway rats. As to the kind of experiment: Cross desensitisation between antigen and peptide in the in vitro rat mast cell system. The class given is cell-based. Here is the method:
(c) Cross Desensitisation in the vitro rat mast cell system between antigen and peptide
Brown Norway rats were immunised intraperitoneally with 100 μg of ovalbumen (XOA) in lmg `alum`. On day 27, peritoneal mast cells were removed, bulked and washed. Aliquots of cells were desensitised by the addition of 4×5 minute incubations with various XOA or peptide concentrations or buffer alone. The cells were then submitted to an optimal histamine releasing challenge of peptide, XOA, or challenged with buffer alone.

[4] abbreviates: cells desensitised with the substance in 4 rising steps (BRL 21547 5 × 10^-8 to 10^-6 M; XOA 0.005 to 0.1 μg/ml), challenge Buffer.
Setting [5] is: cells desensitised with the substance in 4 rising steps, challenge BRL 21547 (10^-5 M).
[6] abbreviates: cells desensitised with the substance in 4 rising steps, challenge XOA lμg/ml.
[7] abbreviates: desensitisation steps 1-4 Buffer, challenge with the substance (BRL 21547 10^-5 M; XOA lμg/ml).

On to `COC(=O)[C@H](Cc1ccccc1)NC(=O)[C@H](Cc1ccccc1)NC(=O)CNC(=O)[C@H](CO)NC(=O)CNC(=O)[C@H](CCCCN)NC(=O)[C@@H](NC(=O)[C@@H](N)CCCCN)[C@@H](C)O` [Example No. 1, LysThrLysGlySerGlyPhePheOMe] (H-KTKGSGFF-OMe), for which the EC50 in experiment [1] was 7.5 µM. Further, the “Inhibition of Activity” value in experiment [1] (inhibition of the peptide's histamine release by Intal (10^-4)) was determined as 50%. In addition, the “LDH/^51 Cr Release” value in experiment [2] (at 10^-6 M) is given as “None”. Besides, in the experiment on Rat Skin, the “ACTIVITY: average concentration of peptide to give an end point in intradernal titrations in rat skin” value (“ACTIVITY: average concentration … in rat skin” below) came out at 100 µM. The “ACTIVITY: average concentration of peptide to give an end point in intradernal titrations in baboon skin” value (shortened to “ACTIVITY: average concentration … in baboon skin”) in the experiment with Baboon Skin was found to be 500 nM.
Consider `COC(=O)[C@H](Cc1ccccc1)NC(=O)[C@H](Cc1ccccc1)NC(=O)CNC(=O)[C@H](CO)NC(=O)CNC(=O)[C@H](CCCCN)NC(=O)[C@@H](NC(=O)[C@H](CCCCN)NC(=O)[C@@H](N)CCCNC(=N)N)[C@@H](C)O` [Example No. 2, ArgLysThrLysGlySerGlyPhePheOMe] (H-RKTKGSGFF-OMe), for which, in experiment [1], the EC50 came to 0.15 µM. Moreover, the “ACTIVITY: average concentration … in rat skin” value in the experiment with Rat Skin stood at 100 µM. For the same compound, the “ACTIVITY: average concentration … in baboon skin” value in the experiment on Baboon Skin came to 100 nM.
In the case of `COC(=O)[C@H](Cc1ccccc1)NC(=O)[C@@H](NC(=O)[C@H](Cc1ccccc1)NC(=O)[C@H](Cc1ccccc1)NC(=O)CNC(=O)[C@H](CO)NC(=O)CNC(=O)[C@H](CCCCN)NC(=O)[C@@H](NC(=O)[C@@H](N)CCCCN)[C@@H](C)O)C(C)C` [Example No. 3, LysThrLysGlySerGlyPhePheValPheOMe] (H-KTKGSGFFVF-OMe), the EC50 in experiment [1] stood at 1 µM. Also, in experiment [2] (at 10^-4 M peptide), the “LDH/^51 Cr Release” value is recorded as “None”. In addition, the “ACTIVITY: average concentration … in rat skin” value in the experiment on Rat Skin was found to be 10 µM. Moreover, the “Inhibition of Activity” value in the experiment on Baboon Skin (by Antihistamine or Intal-like drug) is listed as “Partial”. The “ACTIVITY: average concentration … in baboon skin” value in the experiment with Baboon Skin was 10 nM. Also, the “cross-desensitisation in rat mast cells in vitro between peptide and antigen (in words)” value in experiment [3] is given as “cross-desensitisation”. Besides, the “Total average % histamine release” value in experiment [3] (setting [4]) was 6%; in experiment [3] (setting [5]), 6%; in experiment [3] (setting [6]), 17%; in experiment [3] (setting [7]) it was 47%.
Consider `COC(=O)[C@H](Cc1ccccc1)NC(=O)[C@H](Cc1ccccc1)NC(=O)CNC(=O)[C@H](CO)NC(=O)CNC(=O)[C@H](CCCCN)NC(=O)[C@@H](NC(=O)[C@H](CCCCN)NC(=O)[C@H](CCCNC(=N)N)NC(=O)[C@@H]1CCCN1)[C@@H](C)O` [Example No. 5, ProArgLysThrLysGlySerGlyPhePheOMe] (H-PRKTKGSGFF-OMe), for which the EC50 in experiment [1] is 9.2 µM. Also, the “ACTIVITY: average concentration … in rat skin” value in the experiment on Rat Skin came out at 100 µM. Besides, the “ACTIVITY: average concentration … in baboon skin” value with Baboon Skin worked out at 100 nM.
On to “KTKGSGFF-OH [Example No. 6, LysThrLysGlySerGlyPhePheOH]”, for which the EC50 in experiment [1] was 10 µM. The “ACTIVITY: average concentration … in rat skin” value with Rat Skin turned out to be 100 µM. In addition, the “ACTIVITY: average concentration … in baboon skin” value in the experiment with Baboon Skin amounted to 10000 nM.
The matching figures for “KTKGSGFFVF-OH [Example No. 4, LysThrLysGlySerGlyPhePheValPheOH]”: 33 µM, 100 µM and 10000 nM.
For “XOA: ovalbumen (XOA), the antigen used to immunise Brown Norway rats and to challenge or desensitise their mast cells [reference compound]”, the “Total average % histamine release” value is 6% in experiment [3] (setting [4]), 6% in experiment [3] (setting [5]), 6% in experiment [3] (setting [6]) and 56% in experiment [3] (setting [7]).
